Paper PMC10391610, “Survivin prevents the polycomb repressor complex 2 from methylating histone 3 lysine 27” (iScience, 2023)

What was measured:
[1] = system: XIAP, cIAP2, Bcl-XL, Bcl-2, Bad, p53, cIAP1, STAT3; set-up: method as in 2 sources, ref 22 = [22]; PMID 17804712; doi:10.1158/0008-5472.CAN-07-1343; 22 Nakahara T. Kita A. Yamanaka K. Mori M. Amino N. Takeuchi M. Tominaga F. Hatakeyama S. Kinoyama I. Matsuhisa A. YM155, a novel small-molecule survivin suppressant, induces regression of established ||| ref 23 = [23]; PMID 18927289; doi:10.1158/1078-0432.CCR-08-0468; 23 Iwasa T. Okamoto I. Suzuki M. Nakahara T. Yamanaka K. Hatashita E. Yamada Y. Fukuoka M. Ono K. Nakagawa K. Radiosensitizing effect of YM155, a novel small-molecule survivin suppressant, in non-smal; conditions: cited from earlier work
[2] = system: H3K27me3 / H3K27ac peaks in CD4+ T cells; assay: ChIP-seq of H3K27me3 and H3K27ac after YM155 treatment; format: cell-based, human
Method: (§1) Human peripheral blood mononuclear cells were isolated from venous peripheral blood by density gradient separation on Lymphoprep (Axis-Shield PoC As, Dundee, Scotland). CD4^+ cells were isolated by positive selection (Invitrogen, 11331D), and cultured (1.25×10^6 cells/ml) in wells coated with anti-CD3 antibody (0.5 mg/ml; OKT3, Sigma-Aldrich, Saint Luis, Missouri, USA), in RPMI medium supplemented with 50 μM β-mercaptoethanol (Gibco, Waltham, Massachusetts, USA), Glutamax 2 mM (Gibco), Gentamicin 50 μg/ml (Sanofi-Aventis, Paris, France) and 10% fetal bovine serum (Sigma-Aldrich) at 37°C in a humidified 5% CO2 atmosphere. Cells were treated with survivin inhibitors serpantronium bromide, YM155[22] (YM155, Selleck Chemicals, Houston, TX), as indicated. The cells were stimulated with recombinant IFNg (50 ng/ml; Peprotech, Cranbury, NJ, USA) during the last 2 h and harversted for RNA-seq. Supernatants were used to measure cytokine levels.
For ChIP-seq analysis, CD4^+ cells isolated from 12 women were stimulated with concanavalin A (ConA, 0.625 μg/ml, Sigma-Aldrich), and lipopolysaccharide (LPS) (5 μg/ml, Sigma-Aldrich) for 72 h and pooled in 4 independent samples for DNA purification. After shearing and pre-clearing of chromatin, 1% of the sample was saved as an input. The pre-cleared chromatin was incubated with 2 μg anti-Survivin (10811, Santa Cruz Biotechnology). For ChIPseq targeting histone modifications CD4^+ cells from 3 healthy women were stimulated with concanavalin A and LPS and treated with sepantronium bromide, YM155, 0 or 10 ng/ml, for 24 h. The chromatin was pre-cleared on the beads coated with Sepharose A and incubated with anti-H3K27ac (C15410196, Diagenode), or anti-H3K27me3 (C15410195, Diagenode). The cells were cross-linked and lysed with the EpiTect ChIP OneDay kit (Qiagen), as recommended by the manufacturer. After sonication to shear the chromatin, cellular debris was removed by pelleting. After pre-clearing, 1% of the sample was saved as an input fraction and used as background for nonspecific chromatin binding. Pre-cleared chromatin was incubated with 2 μg of anti-survivin (10811, Santa Cruz Biotechnology, Santa Cruz, CA, USA). The immune complexes were washed, the cross-links were reversed, and the DNA was purified with the EpiTect ChIP OneDay kit (Qiagen) as recommended by the manufacturer. The quality of purified DNA was assessed with TapeStation (Agilent, Santa Clara, CA, USA). DNA libraries were prepared with ThruPLEX (Rubicon) and sequenced with a Hiseq2000 sequencing system (Illumina) according to the manufacturer’s protocols. Bcl-files were converted and demultiplexed to fastq with bcl2fastq (Illumina).
The fastq sequencing files were mapped to the human reference genome (hg38) using the STAR aligner[58] with default parameters apart from setting the alignIntronMax flag to 1 for end-to-end mapping. Quality control of the sequenced material was performed by FastQC tool using MultiQC v.0.9dev0 (Babraham Institute, Cambridge, U.K.). Peak calling was performed using the default parameters. Peaks were identified for enrichment of the immunoprecipitation fraction against input (adjusted p < 10^−5) and annotated by HOMER software[59] in standard mode to closest transcription start site (TSS). Peaks with overlapping localization by at least 1 nucleotide in several samples were merged and further on referred to as one peak. […]

survivin transcription = system: survivin transcription; set-up: method as in PMID 17804712; conditions: cited from earlier work
[3] = system: gene expression in CD4+ cells; assay: RNA-seq after YM155 treatment; format: cell-based, human
Method: as §1
RNA from the CD4^+ cell cultures was prepared using the Norgen Total micro mRNA kit (Norgen, Ontario, Canada). Quality control was done by Bioanalyzer RNA6000 Pico on Agilent2100 (Agilent, Santa Clara, CA, USA). Deep sequencing was done by RNAseq (Hiseq2000, Illumina) at the Science for Life Laboratory, Huddinge, Sweden. Raw sequence data were obtained in Bcl-files and converted into fastq text format using the bcl2fastq program from Illumina.
Mapping of transcripts was done using Genome UCSC annotation set for hg38 human genome assembly. Analysis was performed using the core Bioconductor packages in R-studio v.3.6.3. Differentially expressed genes in CD4^+ cells treated with YM155 were identified using DESeq2 (v.1.26.0) with Benjamini-Hochberg adjustment for multiple testing.
Supplementary file mmc2.xlsx: Table S1. Differentially expressed protein coding genes connected to the changeable H3K27me3 peaks in CD4^+ T cells, related to Figure 1 CD4^+ T cells (n=4) were cultured with survivin inhibitor YM155 (0 and 10 ng/ml). Expression was analyzed by RNA-seq and compared by paired DESeq2 test.

For `COCCn1c2c([n+](Cc3cnccn3)c1C)C(=O)c1ccccc1C2=O` [YM155, sepantronium bromide], the “effect on expression of XIAP, cIAP2, Bcl-XL, Bcl-2, Bad (in words)” value [1] is listed as “does not change the expression”, the “effect on expression of p53, cIAP1, STAT3 (in words)” value [1] is listed as “does not change the expression” and the “H3K27 acetylation after survivin inhibition (in words)” value ([2]; CD4+ T cells, YM155 10 ng/ml, 24 h) is listed as “virtually unaffected”. For the same compound, the “proportion of H3K27me3 peaks with increased H3K27me3 deposition” value ([2]; CD4+ T cells, YM155 10 ng/ml, 24 h, ConA/LPS stimulated) was 85%, the “increase in tag counts, middle H3K27me3 peak (first)” value ([2]; HOX-B cluster, chromosome 17) was 51% and the “increase in tag counts, middle H3K27me3 peak (second)” value ([2]; HOX-B cluster, chromosome 17) was 69%. The “number of H3K27me3 peaks that increased the count by 30%” value ([2]; YM155-treated CD4+ cell cultures) was 7413, the “effect on survivin transcription (in words)” value (survivin transcription) was “specifically inhibits survivin transcription” and the “caudal HOX-B gene expression (in words)” value ([3]; HOX-B8, -B9, and -B13, YM155, CD4+ cells) was “a change of the HOX-B genes, which was clearly seen in the caudal HOX-B8, -B9, and -B13 genes”. For the same compound, the “number of genes downregulated (of 157)” value ([3]; genes connected to changed H3K27me3 peaks, YM155-treated CD4+ cells) was 100 and the “number of protein-coding genes with significantly changed mRNA levels” value ([3]; genes connected to regulatory elements at changed H3K27me3 peaks, nominal p < 0.01, YM155-treated CD4+ cells) was 157.
